Measurements published in patent US6656921B1, “Use of zinc hyaluronate against peptic ulcer” (Richter Gedeon Vegyeszeti Gyar RT., priority 1997, dated 2003).
Where “and” joins values, the source holds several entries; their conditions need not be identical. Equal entries are not always repeated. Marks after values point to notes of the source that are not given here.

Assays:
[1] = system: acidified ethanol induced gastric lesion; assay: Inhibition of acidified-ethanol induced gastric lesions; assay type: in vivo, rat; settings: for Inhibition / Lesion length/stomach mm ± S.E.M.: 30 min before acidified ethanol
Description: Female RG-Wistar rats weighing between 120-150 g were used. Before experiments animals were fasted for 24 hours but received water ad libitum.
Experiments were carried out according to the technique similar to that described by A. Robert [Gastroenterology 77, […] (1979)].
Acidified ethanol (mixture of 50 ml of abs. ethanol and 1 ml of concentrated HCI) was used as strong irritants. Dose of acidified ethanol was 0.5 ml/100 g body weight with intragastric administration. Test compounds were given orally 30 minutes before the acidified ethanol challenge. When the duration of action of test compound was studied test material was administered 60 or 120 minutes earlier to the irritating effect induced by acidified-ethanol effect. One hour after the acidified ethanol treatment rats were sacrificed by cervical dislocation. Stomachs were removed and opened along the greater curvature and mildly washed down. The longitudinal hemorrhagic lesions were assayed by length.
ED50 value was defined as the dose that gave a 50% decrease in ulcer index.

[2] = system: indomethacin induced gastric lesion; assay: Inhibition of indomethacin induced gastric lesion; assay type: in vivo, rat; settings: for ED50 (dose protecting the stomach by 50% from indomethacin): p.o.
Description: 2. Inhibition of Indomethacin Induced Gastric Lesion Female RG Wistar rats weighing between 120-150 g were used. Before the experiments animals were fasted for 24 hours but received water ad libitum. Test compounds were given orally, 30 minutes later the animals were treated subcutaneously with indomethacin at a dose of 40 mg/kg. Four hours after the irritating indomethacin administration the animals were killed by cervical dislocation. The stomachs were removed, opened along the greater curvature and the hemorrhagic lesions were counted on the glandular stomach.
ED50 value represents the dose which protects the stomach by 50 % from the damaging effect of indomethacin.

[3] = system: acetic acid induced chronic gastric ulcer; assay: Inhibition of acetic acid induced chronic gastric ulcer; assay type: in vivo, rat; settings: for Ulcerated area mm^2 ± S.E.M.: day 5 to 14 after surgery
Description: Female, RG Wistar rats weighing between 120-150 g were used. Before the surgery animals were deprived of food for 24 hours but received water ad libitum. The chronic gastric ulcer was induced by the injection of 25 μl/animal of 20% (v/v) acetic acid into the gastric wall under light ether anaesthesia according to the method similar to that described by Takagi et al. (1969). The oral treatment with the test compounds was started five days after the surgery and continued in a once-a-day regimen up to the 14th day. The animals were killed on the 15th day and their stomachs were dissected. The severity of ulceration was evaluated by the measurement of the diameter of the ulcers and the area affected was calculated. The healing effect was expressed as differences in percentage between the control and test group values.

[4] = system: indomethacin induced intestinal ulcer; assay: Inhibition of indomethacin induced intestinal ulcer (tensile strength); assay type: in vivo, rat; settings: for Tensile strength of intestinal wall as index of ulceration Hgmm ± S.E.M.: indomethacin 15 mg/kg p.o.; for Effect against indomethacin induced intestinal ulceration (in words): rat, in vivo
Description: Female, RG-Wistar, non-fasted rats weighing between 120-150 g were used. The intestinal ulcer was induced by oral administration of 15 mg/kg indomethacin. Test compound was given to animals orally 3 times over 48 hours in 24 hour equal intervals. The first introduction of test compound preceded the single indomethacin treatment by 60 minutes. Animals were killed 72 hours after the first administration of the test compound. Control animals received vehicle instead of test compound and normal rats mean non-fasted, non-treated rats. The small intestine segment from pylorus to cecum was removed, placed into 0.9% (w/v) sodium chloride solution at 37° C. and it was connected with a BP recorder through one of its ends via a polyethylene cannula. After ligating both ends of the prepartum the pressure was increased inside the intestine until air bubbles appeared at the weakened site of the intestinal wall. This pressure is expressed in Hgmm and is denoted tensile strength (TS).

[5] = system: gastrointestinal motility; assay: Gastrointestinal motility in the charcoal propulsion test; assay type: in vivo, rat; settings: 100 mg/kg p.o.
Description: Experiments were performed on female, RG-Wistar rats weighing 120-140 g, which were fasted for 24 hours but received water ad libitum.
The experimental procedure was carried out according to the technique similar to that described of P. A. Janssen and A. J. Jageneau [J. Pharm. Pharmacel. 9, 381 (1957)].
Test compounds were given orally at a dose of 100 mg/kg. Control animals received physiological saline solution instead of test compounds. 30 minutes later, the 5% (w/v) charcoal suspension was administered orally at a volume of 0.5 ml/animal. 60 minutes after the charcoal treatment the animals were sacrificed by cervical dislocation. The intestine from pylorus to cecum was removed, its lengths measured along with the distance traversed by the charcoal meal.
Motility was expressed as the ratio of length of charcoal suspension to the length of the whole intestine.

[6] = system: Helicobacter pylori; assay: Activity against Helicobacter pylori (agar MIC); assay type: cell-based
Description: These experiments were performed on Helicobacter pylori strains cultivated from the gastric biopsy samples of patients suffering from various ulcers. An 1% by (w/w) solutions of De-Nol (colloidal bismuth subcitrate) was used as reference substance. An agar medium supplemented with 10% of bovine blood was employed. Plates containing no substance to be tested were used as controls. The plates inoculated were incubated at 37° C. in a gas atmosphere containing 5% of oxygen and 7-8% of carbon dioxide for 3-5 days. Minimum inhibitory concentration (MIC) value was considered to be the lowest concentration of substances totally inhibiting the growth (propagation) of well-propagating bacteria on control plates.

[7] = 40 mg/kg p.o., 30 min before indomethacin
[8] = 80 mg/kg p.o., 30 min before indomethacin
[9] = 160 mg/kg p.o., 30 min before indomethacin

With “zinc hyaluronate [Zinc hyaluronate (II)]” the Inhibition ([1]; 10 mg/kg p.o.) was 42.7%, the “Lesion length/stomach mm ± S.E.M.” value ([1]; 10 mg/kg p.o.) was 48.0 ± 10.9 mm and the Inhibition ([1]; 25 mg/kg p.o.) was 77.3%. The “Lesion length/stomach mm ± S.E.M.” value ([1]; 25 mg/kg p.o.) was 19.0 ± 4.4 mm, the Inhibition ([1]; 50 mg/kg p.o.) was 84.1% and the “Lesion length/stomach mm ± S.E.M.” value ([1]; 50 mg/kg p.o.) was 13.3 ± 4.8 mm. The Inhibition ([1]; 100 mg/kg p.o.) was 98.1%, the “Lesion length/stomach mm ± S.E.M.” value ([1]; 100 mg/kg p.o.) was 1.6 ± 0.5 mm and the “ED50 (dose giving 50% decrease in ulcer index)” value ([1]; p.o., 30 min pretreatment) was 11.1 mg/kg. For the same substance, the Inhibition ([2]; 1.0 mg/kg p.o., 30 min before indomethacin) was 31.8%, the “Lesion number/stomach ± S.E.M.” value ([2]; 1.0 mg/kg p.o., 30 min before indomethacin 40 mg/kg s.c.) was 8.8 ± 2.1 and the Inhibition ([2]; 10.0 mg/kg p.o., 30 min before indomethacin) was 56.5%. The “Lesion number/stomach ± S.E.M.” value ([2]; 10.0 mg/kg p.o., 30 min before indomethacin 40 mg/kg s.c.) was 7.4 ± 1.9, the Inhibition ([2]; 100 mg/kg p.o., 30 min before indomethacin) was 78.2% and the “Lesion number/stomach ± S.E.M.” value ([2]; 100 mg/kg p.o., 30 min before indomethacin 40 mg/kg s.c.) was 3.7 ± 0.8. For the same substance, the “ED50 (dose protecting the stomach by 50% from indomethacin)” value [2] was 5.8 mg/kg, the “Ulcerated area mm^2 ± S.E.M.” value ([3]; 0.01 mg/kg p.o. once a day) was 6.2 ± 1.0 mm^2 and the “Ulcerated area mm^2 ± S.E.M.” value ([3]; 0.1 mg/kg p.o. once a day) was 5.8 ± 1.1 mm^2. The “Ulcerated area mm^2 ± S.E.M.” value ([3]; 1.0 mg/kg p.o. once a day) was 3.7 ± 1.6* mm^2 and 3.7 ± 0.6* mm^2, the “Effect on healing of acetic acid induced chronic ulcer (in words)” value ([3]; rat, in vivo) was “accelerated the healing” and the “Tensile strength of intestinal wall as index of ulceration Hgmm ± S.E.M.” value ([4]; 3 × 1 mg/kg p.o.) was 27.9 ± 8.9 Hgmm. The “Tensile strength of intestinal wall as index of ulceration Hgmm ± S.E.M.” value ([4]; 3 × 10 mg/kg p.o.) was 41.3 ± 10.9 Hgmm, the “Tensile strength of intestinal wall as index of ulceration Hgmm ± S.E.M.” value ([4]; 3 × 100 mg/kg p.o.) was 48.8 ± 11.3 Hgmm and the “Increase of tensile strength of intestinal wall compared to the control group” value ([4]; doses of 10 mg/kg and 100 mg/kg) was “almost three times”. For the same substance, the “Effect against indomethacin induced intestinal ulceration (in words)” value [4] was “had a protective effect on the intestinal wall”, the “Effect on the intestinal motility (in words)” value [5] was “absence of change in activity” and the “Propulsion of charcoal suspension mm ± S.E.M.” value ([5]; 30 min before charcoal, 60 min after charcoal, listed as Zink-hyaluronate (II)) was 610 ± 3.9 mm. For the same substance, the “Ratio of charcoal suspension to the whole intestinal part” value ([5]; listed as Zink-hyaluronate (II)) was 0.77 ± 0.04.

With sucralfate [reference compound] the Inhibition ([1]; 50 mg/kg p.o.) was 0%, the “Lesion length/stomach mm ± S.E.M.” value ([1]; 50 mg/kg p.o.) was 64.0 ± 25.9 mm and the Inhibition ([1]; 100 mg/kg p.o.) was 75.3%. The “Lesion length/stomach mm ± S.E.M.” value ([1]; 100 mg/kg p.o.) was 15.0 ± 5.5 mm, the Inhibition ([1]; 400 mg/kg p.o.) was 87.7% and the “Lesion length/stomach mm ± S.E.M.” value ([1]; 400 mg/kg p.o.) was 7.5 ± 3.0 mm. For the same substance, the Inhibition [2, 7] was 14.8%, the “Lesion number/stomach ± S.E.M.” value [2, 7] was 14.4 ± 4.8 and the Inhibition [2, 8] was 62.1%. For the same substance, the “Lesion number/stomach ± S.E.M.” value [2, 8] was 6.4 ± 2.2, the Inhibition [2, 9] was 82.8% and the “Lesion number/stomach ± S.E.M.” value [2, 9] was 2.9 ± 1.4. For the same substance, the “ED50 (dose protecting the stomach by 50% from indomethacin)” value [2] was 74.9 mg/kg, the “Ulcerated area mm^2 ± s.e.m.” value ([3]; 100 mg/kg p.o. once a day) was 6.7 ± 1.5 mm^2 and the “Ulcerated area mm^2 ± s.e.m.” value ([3]; 500 mg/kg p.o. once a day) was 4.3 ± 1.3* mm^2. For the same substance, the “Effect on healing %” value ([3]; 500 mg/kg p.o. once a day, ↓healing slowed down, ↑healing accelerated) was 53% and the “Effect against indomethacin induced intestinal ulceration (in words)” value [4] was “totally ineffective”.

In the case of zinc hyaluronate, the “In vitro activity against Helicobacter pylori (in words)” value [6] is reported as “commensurable with activity of De-Nol” and the MIC ([6]; strain 822/96, agar medium with 10% bovine blood, 37° C., 3-5 days) is reported as 500 µg/mL.
